# Results taken from article PMC12147132 (2025).
# How the values were obtained:
# [1] = tested on: AD-aptamer subunits L1F + L2Q (DNA, aptamer) ATAACGCATTTTGTTATGCGGAGGAAGGTAT/AATGCGTTATTAGAATT/ATACCTGGGGGAGTATTAACATGTTCCATCTT/TTAAATCAAGATGGAAC; experiment: not given in the source (Figure S2)
# [2] = tested on: BA' (DNA, aptamer) CTGTTCAGCGATTACTATGCGGAGGAAGGTAT/ATACCTGGGGGAGTATTAGTACACCCATGTTTCAGT; experiment: DNAzyme substrate cleavage fluorescence; details: Mg2+; qualitative; AD 4-5 mM with ADA present
# [3] = tested on: D1/D2 (AD-stabilized Mg2+-dependent DNAzyme; same sequences as constituent AB') (DNA, aptamer) GTCCTCAGCGATTACTATGCGGAGGAAGGTAT/ATACCTGGGGGAGTATTAGTACACCCATGTTCCTGA; experiment: DNAzyme substrate cleavage fluorescence; details: qualitative, AD 3-5 mM with ADA present
# [4] = tested on: AA' (DNA, aptamer) GTCCTCAGCGATTACTATGCGGAGGAAGGTAT/ATACCTGGGGGAGTATTAGTACACCCATGTTTCAGT; experiment: DNAzyme substrate cleavage fluorescence; details: Mg2+; qualitative; AD 4-5 mM with ADA present
# [5] = tested on: BB' (DNA, aptamer) CTGTTCAGCGATTACTATGCGGAGGAAGGTAT/ATACCTGGGGGAGTATTAGTACACCCATGTTCCTGA; experiment: DNAzyme substrate cleavage fluorescence; details: Mg2+; qualitative; AD 4-5 mM with ADA present
# [6] = tested on: AD-aptamer subunits L1F + L2Q (DNA, aptamer) ATAACGCATTTTGTTATGCGGAGGAAGGTAT/AATGCGTTATTAGAATT/ATACCTGGGGGAGTATTAACATGTTCCATCTT/TTAAATCAAGATGGAAC; experiment: not stated in material (Figure S4)
# [7] = highest concentration not in material
"binding [1, 7]",binding ([1]; qualitative),SMILES,other results
no,,Cc1cn([C@H]2C[C@H](O)[C@@H](COP(=O)(O)OP(=O)(O)OP(=O)(O)O)O2)c(=O)[nH]c1=O,
no,,Nc1ccn([C@@H]2O[C@H](COP(=O)(O)OP(=O)(O)OP(=O)(O)O)[C@@H](O)[C@H]2O)c(=O)n1,
no,,Nc1nc2c(ncn2[C@@H]2O[C@H](COP(=O)(O)OP(=O)(O)OP(=O)(O)O)[C@@H](O)[C@H]2O)c(=O)[nH]1,
,,Nc1ncnc2c1ncn2[C@@H]1O[C@H](CO)[C@@H](O)[C@H]1O,binding [2]: yes; binding [3]: yes; binding [4]: yes; binding [5]: yes; Kd ([6]; not perturbed by ADA or inosine): 11.8 ± 2.3 µM
,yes,Nc1ncnc2c1ncn2[C@@H]1O[C@H](COP(=O)(O)O)[C@@H](O)[C@H]1O,
,yes,Nc1ncnc2c1ncn2[C@@H]1O[C@H](COP(=O)(O)OP(=O)(O)O)[C@@H](O)[C@H]1O,
,yes,Nc1ncnc2c1ncn2[C@@H]1O[C@H](COP(=O)(O)OP(=O)(O)OP(=O)(O)O)[C@@H](O)[C@H]1O,
,,O=c1[nH]cnc2c1ncn2[C@@H]1O[C@H](CO)[C@@H](O)[C@H]1O,"binding [6, 7]: no"
no,,O=c1ccn([C@@H]2O[C@H](COP(=O)(O)OP(=O)(O)OP(=O)(O)O)[C@@H](O)[C@H]2O)c(=O)[nH]1,
